Measured values taken from patent US6344562B1, “Thiazole derivatives” (Hoffmann-La Roche Inc., priority 1998, dated 2002).

Row | SMILES | melting point [°C]
1 | CCOC(=O)CC(CCCCNC(=O)c1sc(N=C2NCCCN2)nc1C)c1ccccc1 (racemic) [Example 173, ethyl rac-7-[[4-methyl-2-(tetrahydro-pyrimidin-2-ylideneamino)-thiazole-5-carbonyl]-amino]-3-phenyl-heptanoate] | 137 to 139
2 | CCOC(=O)CCNC(=O)CCNC(=O)c1csc(NC(=N)N)n1 [Example 7, ethyl 3-[3-[(2-guanidino-thiazole-4-carbonyl)-amino]-propionylamino]-propionate] | 154 to 157
3 | CC(C)(C)OC(=O)C[C@H](NC(=O)CNC(=O)c1csc(NC(=O)NCc2ccccc2)n1)C(=O)Nc1ccccc1C(=O)OC(C)(C)C [Example 135, tert-butyl (S)-2-[2-[2-[[2-(3-benzyl-ureido)-thiazole-4-carbonyl]-amino]-acetylamino]-3-tert-butoxycarbonyl-propionylamino]-benzoate] | 116
4 | COC(=O)CCCCCNC(=O)c1csc(NC(=O)NCc2ccccc2)n1 [Example 137, methyl 6-{[2-(3-benzyl-ureido)-thiazole-4-carbonyl]-amino}-hexanoate] | 140
5 | CC(C)[C@H](NC(=O)[C@H](CC(=O)OC(C)(C)C)NC(=O)CNC(=O)c1csc(NC(=O)NCc2ccccc2)n1)C(=O)OC(C)(C)C [Example 141, tert-butyl (S)-2-[(S)-2-[2-[[2-(3-benzyl-ureido)-thiazole-4-carbonyl]-amino]-acetylamino]-3-tert-butoxycarbonyl-propionylamino]-3-methyl-butyrate] | 108 to 111
6 | COC(=O)[C@H](CCCCNC(=O)c1csc(NC(=O)NCc2ccccc2)n1)NC(=O)OC(C)(C)C [Example 145, methyl (S)-6-{[2-(3-benzyl-ureido)-thiazole-4-carbonyl]-amino}-2-tert-butoxycarbonylamino-hexanoate] | 166
7 | CC(C)(C)OC(=O)N[C@@H](CCCCNC(=O)c1csc(NC(=O)NCc2ccccc2)n1)C(=O)O [Example 146, (S)-6-{[2-(3-benzyl-ureido)-thiazole-4-carbonyl]-amino}-2-tert-butoxycarbonylamino-hexanoic acid] | 138

Second part, the compound after the results:

Row | melting point [°C] | SMILES
8 | 135 to 136 | CCOC(=O)CCCC(=O)CNC(=O)c1csc(NC(=O)NCc2ccccc2)n1 [Example 82, ethyl 6-{[2-(3-benzyl-ureido)-thiazole-4-carbonyl]-amino}-5-oxo-hexanoate]
9 | 169 | O=C(O)CCCC(=O)CNC(=O)c1csc(NC(=O)NCc2ccccc2)n1 [Example 83, 6-{[2-(3-benzyl-ureido)-thiazole-4-carbonyl]-amino}-5-oxo-hexanoic acid]
10 | 123 | CC(C)(C)OC(=O)C[C@H](NC(=O)CNC(=O)c1csc(NC(=O)NCc2ccccc2)n1)C(=O)NCc1ccccc1 [Example 129, tert-butyl (S)-N-benzyl-3-[2-[[2-(3-benzyl-ureido)-thiazole-4-carbonyl]-amino]-acetylamino]-succinamate]
11 | 187 | CCOC(=O)CCNC(=O)CNC(=O)c1csc(NC(=O)NCc2ccccc2)n1 [Example 131, ethyl 3-[2-[[2-(3-benzyl-ureido)-thiazole-4-carbonyl]-amino]-acetylamino]-propionate]
12 | 185 | COc1cccc(NC(=O)[C@H](CC(=O)O)NC(=O)CNC(=O)c2csc(NC(=O)NCc3ccccc3)n2)c1 [Example 134, (S)-3-[2-[[2-(3-benzyl-ureido)-thiazole-4-carbonyl]-amino]-acetylamino]-N-(3-methoxy-phenyl)-succinamic acid]
13 | 192 | O=C(O)C[C@H](NC(=O)CNC(=O)c1csc(NC(=O)NCc2ccccc2)n1)C(=O)Nc1ccccc1C(=O)O [Example 136, (S)-2-[2-(2-{[2-(3-benzyl-ureido)-thiazole-4-carbonyl]-amino}-acetylamino)-3-carboxy-propionylamino]-benzoic acid]
14 | 178 | O=C(O)CCCCCNC(=O)c1csc(NC(=O)NCc2ccccc2)n1 [Example 138, 6-{[2-(3-benzyl-ureido)-thiazole-4-carbonyl]-amino}-hexanoic acid]
